The values that follow come from patent publication US20140121220A1, “CRYSTALS OF PHENYLPYRROLE DERIVATIVE” (Daiichi Sankyo Company, Limited, priority 2011, published 2014).

A short description of data set [1]: Solubility test (Test Example 4). Format: physicochemical. As to conditions: 4 mg in 2 mL; for solubility at 30 min: 37 °C, thermodynamic from solid, read-out: Concentration (solubility); for Concentration (solubility): 37° C., 30 minutes. Here is the method: The Form I crystal (4 mg), the Form II crystal (4 mg) and Compound II (4 mg) were respectively dissolved in 2 mL of water, Japanese Pharmacopoeia Elution Test Solution 1 (JP1), Japanese Pharmacopoeia Elution Test Solution 2 (JP2), Fasted State Simulated Intestinal Fluid (FaSSIF) and Fed State Simulated Intestinal Fluid (FeSSIF). After stirring vigorously for 30 seconds every 5 minutes in a constant temperature water bath at 37° C., a portion of the supernatant was sampled 30 minutes later and filtered with a syringe filter. The filtrate was suitably diluted for use as the sample solution.
The sample solution was measured using HPLC under the following conditions.
HPLC system: Waters Alliance
Column: Waters, XBridge C18 3.5 μm
Column temperature: 40° C.
Solvent A: 5 mM aqueous ammonium hydrogencarbonate solution
The gradient program is as indicated below.

Data set [2] deals with spontaneously diabetic rats (ZDF-Lepr^fa/CrlCrlj). In words: Blood glucose lowering activity test (Test Example 6). Format: in vivo, rat. As to conditions: for Area under blood glucose curve: 0 to 6 hours after oral administration, fasting, Form I crystal 10 mg/kg, Compound II 8.3 mg/kg (equivalent as free form), average of five. Here is the method:
Male, 9-week-old, spontaneously diabetic rats (ZDF-Lepr^fa/CrlCrlj) were used.
A crystal of the compound of the present invention in the form of the Form I crystal at 10 mg/kg or the free form thereof in the form of Compound II at 8.3 mg/kg (calculated based on the free form, corresponding to the equivalent of 10 mg/kg of the Form I crystal) was respectively suspended in a 20% aqueous HP-β-cyclodextrin solution (hereinafter referred to as “vehicle”) and orally administered under fasting conditions.
Blood glucose levels were measured in accordance with ordinary methods before administration of the compounds (at 0 hour) and at 0.5, 1, 2, 4 and 6 hours after administration. Namely, the tips of the rat tails (about 1 mm) were severed and blood collected with hematocrit tubes subjected to anticoagulation treatment with heparin were centrifuged followed by measuring the resulting plasma with the Glucoroder F (A&T Corporation). The areas under blood glucose curves from 0 to 6 hours after administration were calculated using the resulting blood glucose values.
The results of a blood glucose lowering activity test on each group administered with the Form I crystal, Compound II or vehicle only were as shown in Table 8.
Furthermore, the values shown in Table 8 are all the average values of test result values obtained using five spontaneously diabetic rats (ZDF-Lepr^fa/CrlCrlj).

Data set [3] is described as follows: Evaluation of in vivo absorption.
A short description of data set [4]: Hygroscopicity test (Test Example 3). Particulars: 25° C., 10 to 90% RH. Format: physicochemical. Here is the method: The sample was weighed in a glass sample cup, and weight was measured under the conditions indicated below.
Measuring instrument: SGA-100 (VTI Corp.)
Measuring temperature: 25° C.
Minimum exposure time: 15 min
Maximum exposure time: 120 min
Step transition condition: within 0.03 wt %
The appearance of the sample was observed following completion of measurement.

The mark [5] stands for this setting: Fed State Simulated Intestinal Fluid (FeSSIF).
[6] abbreviates: Japanese Pharmacopoeia Elution Test Solution 2 (JP2).
[7] abbreviates: Fasted State Simulated Intestinal Fluid (FaSSIF).
Setting [8] is: Japanese Pharmacopoeia Elution Test Solution 1 (JP1).

Values after ≈ are worked out from the molar mass of the structure shown. Read-outs that look alike come from different tables or passages of the source.

Regarding `C[C@H]1CN=C(c2ccc(-c3cc(Oc4cnc(S(C)(=O)=O)cn4)cc(O[C@@H](C)CO)c3)[nH]2)O1` [Compound II, (2S)-2-(3-{5-[(5S)-5-Methyl-4,5-dihydro-1,3-oxazol-2-yl]-1H-pyrrol-2-yl}-5-{[5-(methylsulfonyl)pyrazin-2-yl]oxy}phenoxy)propan-1-ol, reference compound], the solubility at 30 min in data set [1] (Fasted State Simulated Intestinal Fluid (FaSSIF), fassif, Fasted State Simulated Intestinal Fluid (FaSSIF)) was 12 µg/mL (≈ 25.4 µM); in data set [1] (Japanese Pharmacopoeia Elution Test Solution 1 (JP1), pH 1.2, simulated gastric fluid, Japanese Pharmacopoeia Elution Test Solution 1 (JP1)), above 1500 µg/mL. The “Concentration (solubility)” value in data set [1] (setting [5]) is 222 µg/mL; in data set [1] (setting [6]) it was 5.87 µg/mL; in data set [1] (Water), 5.59 µg/mL. Besides, the “Area under blood glucose curve” value in data set [2] is 661.8 ± 26.9 mg/dl × hr.

As to `C[C@H]1CN=C(c2ccc(-c3cc(Oc4cnc(S(C)(=O)=O)cn4)cc(O[C@@H](C)CO)c3)[nH]2)O1` [Form I crystal, (2S)-2-(3-{5-[(5S)-5-Methyl-4,5-dihydro-1,3-oxazol-2-yl]-1H-pyrrol-2-yl}-5-{[5-(methylsulfonyl)pyrazin-2-yl]oxy}phenoxy)propan-1-ol monomethanesulfonate], the “Blood concentrations in comparison with Compound II” value in data set [3] was “high blood concentrations in comparison with Compound II”. Besides, the “Concentration (solubility)” value in data set [1] (setting [7]) is 20.4 µg/mL; in data set [1] (setting [5]), 1145 µg/mL; in data set [1] (setting [8]), above 1500 µg/mL; in data set [1] (setting [6]), 11.8 µg/mL; in data set [1] (Water), above 1500 µg/mL. In addition, the “Hygroscopicity (moisture sorption-desorption behavior)” value in data set [4] is recorded as “did not demonstrate hygroscopicity”. In data set [2], the “Area under blood glucose curve” value was found to be 529.0 ± 24.5 mg/dl × hr. For the same molecule, the “Blood glucose lowering activity compared with Compound II” value in data set [2] (oral, 10 mg/kg Form I crystal vs 8.3 mg/kg Compound II) is recorded as “superior to that of the free form”.

Consider `C[C@H]1CN=C(c2ccc(-c3cc(Oc4cnc(S(C)(=O)=O)cn4)cc(O[C@@H](C)CO)c3)[nH]2)O1` [Form II crystal, (2S)-2-(3-{5-[(5S)-5-Methyl-4,5-dihydro-1,3-oxazol-2-yl]-1H-pyrrol-2-yl}-5-{[5-(methylsulfonyl)pyrazin-2-yl]oxy}phenoxy)propan-1-ol monomethanesulfonate], for which the “Blood concentrations in comparison with Compound II” value in data set [3] is on record as “high blood concentrations in comparison with Compound II”. In addition, the “Concentration (solubility)” value in data set [1] (setting [7]) was 20.5 µg/mL; in data set [1] (setting [5]) it was 1381 µg/mL; in data set [1] (setting [8]), above 1500 µg/mL; in data set [1] (setting [6]) it was 14.1 µg/mL; in data set [1] (Water), above 1500 µg/mL. The “Hygroscopicity (moisture sorption-desorption behavior)” value in data set [4] is reported as “did not demonstrate hygroscopicity”.
